Test results as given in patent US20060003027A1, “Composition and method for reducing side effects of indole-3-carbinol and derivatives” (priority 2004, published 2006).

Key:
[1] = test system: HPV-induced benign tumors of laryngeal tissue; settings: mouse model; cited from earlier work
[2] = test system: cervical or vaginal neoplasia; test: Treatment of female patients with coccygeal-area pain and abnormal pap smear (pain, pap smear, biopsy); format: in vivo, human; settings: I3C alone, 110 mg per dose twice daily; Example 1 patient
Procedure: A patient, and 110 lbs. in weight, has complained of pain in the area of the coccygeal vertebra, which may reflect cervical inflammation, and/or cervical or vaginal neoplasia.
(§1) This patient was administered a high dosage of I3C, specifically 110 mg/per dose, twice daily. […] A composition (composition 1) in accordance with the present invention was then given to this patient. Composition 1 is as set forth below:
Composition 2 in accordance with the present invention was administered to the patient. Composition 2 is as set forth below:
(§2) Composition 3 was then administered to this patient for a period of eight weeks.

[3] = Side effects observed in treated patients (case reports); format: in vivo, human
Procedure: as §1, §2

mammary carcinogenesis = settings: rat model; cited from earlier work

## OCc1c[nH]c2ccccc12 [Composition I3C, Indole-3-carbinol]
[1]
  growth of HPV-induced benign tumors of laryngeal tissue: inhibits growth
[2]
  pain in the area of the coccygeal vertebra: relief from the pain
[3]; I3C alone, 110 mg per dose twice daily, about a week, patient, 110 lbs
  side effects experienced: headache, dizziness and fatigue
[3]; I3C at 200 mg/day and above 200 mg/day, some people of regular body weight
  undesirable side effects: headache, dizziness, stomach disturbance, convulsion, vomiting, and fatigue
Mammary carcinogenesis
  inhibition of mammary carcinogenesis: effective in inhibiting mammary carcinogenesis
